Measurements as given in patent publication US20060173015A1, “Cyclohexyldiamines as selective alpha 1a/1d adrenoreceptor antagonists for the treatment of benign prostatic hypertrophy and lower urinary tract symptoms” (priority 2004, published 2006).

Assays:
[1] = biological target: T1, α1a-AR (Homo sapiens, UniProt P35348); test: α1-Adrenergic receptor radio-ligand (125I-HEAT) binding assay, α1a subtype; conditions: COS-7 cell membranes, 125I-HEAT
T1 construct: expressed in transfected cells; host or cells: COS-7
T1 sequence (P35348 1-466): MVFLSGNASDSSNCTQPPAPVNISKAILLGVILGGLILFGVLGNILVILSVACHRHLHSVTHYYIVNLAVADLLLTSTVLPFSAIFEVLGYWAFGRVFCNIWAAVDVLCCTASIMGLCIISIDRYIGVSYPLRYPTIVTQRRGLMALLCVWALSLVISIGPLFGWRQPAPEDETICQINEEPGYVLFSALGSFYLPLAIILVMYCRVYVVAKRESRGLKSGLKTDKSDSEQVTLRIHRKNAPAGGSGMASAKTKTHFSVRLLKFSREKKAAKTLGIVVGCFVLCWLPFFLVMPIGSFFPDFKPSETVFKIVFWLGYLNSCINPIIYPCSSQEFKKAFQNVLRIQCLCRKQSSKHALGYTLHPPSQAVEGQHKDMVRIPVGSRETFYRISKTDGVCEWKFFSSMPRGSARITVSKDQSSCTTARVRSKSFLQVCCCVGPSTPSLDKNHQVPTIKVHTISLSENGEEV
How it was run: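 Membranes from COS-7 cells transfected with the α1a-AR were incubated with 50 pM final ¹²⁵I-HEAT and test compound (1 pM–10 μM final, half-log steps) in Tris/EDTA/NaCl buffer pH 7.4 for 1 hr at rt. Bound radioactivity was counted after GF/C filtration, in triplicate.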

[2] = biological target: T2, α1b-AR (Homo sapiens, UniProt P35368); test: α1-Adrenergic receptor radio-ligand (125I-HEAT) binding assay, α1b subtype; conditions: Receptor Binding, Ki α1b-AR, COS-7 cell membranes, 125I-HEAT
T2 sequence (P35368 1-520): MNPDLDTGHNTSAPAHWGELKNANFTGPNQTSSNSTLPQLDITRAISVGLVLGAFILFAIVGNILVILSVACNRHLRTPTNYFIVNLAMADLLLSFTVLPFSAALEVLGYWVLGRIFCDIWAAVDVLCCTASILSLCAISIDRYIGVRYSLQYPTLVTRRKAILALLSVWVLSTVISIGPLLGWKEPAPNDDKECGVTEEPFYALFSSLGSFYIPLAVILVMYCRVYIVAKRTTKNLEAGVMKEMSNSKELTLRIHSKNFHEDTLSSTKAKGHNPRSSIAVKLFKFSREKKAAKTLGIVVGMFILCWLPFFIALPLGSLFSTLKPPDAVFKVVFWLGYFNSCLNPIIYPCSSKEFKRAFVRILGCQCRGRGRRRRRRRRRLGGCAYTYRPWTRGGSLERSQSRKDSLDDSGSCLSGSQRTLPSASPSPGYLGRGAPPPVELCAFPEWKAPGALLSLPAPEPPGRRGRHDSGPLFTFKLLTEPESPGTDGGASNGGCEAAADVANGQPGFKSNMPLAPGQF

- Ki [1]: 0.0012 µM
- Ki [2]: 0.1 µM
SMILES: COc1ccc(S(=O)(=O)N[C@H]2CC[C@@H](N3CCN(c4ccccc4OCC(F)(F)F)CC3)CC2)cc1OC [Cpd 69, 3,4-Dimethoxy-N-cis-(4-{4-[2-(2,2,2-trifluoro-ethoxy)-phenyl]-piperazin-1-yl}-cyclohexyl)-benzenesulfonamide]
